From ChEMBL document CHEMBL4610059, “Isolation of triterpenoid saponins from Medicago sativa L. with neuroprotective activities” (2020) come the findings set out here.

What all share (assay type): functional
What all share (settings): read-out: Activity

Assay [1] has as its system SH-SY5Y. Kind of assay: Neuroprotective activity against H2O2-induced cell death in human SH-SY5Y cells assessed as cell viability at 25 uM preincubated for 1 hr followed by H2O2 addition and measured after 4 hrs by CCK8 assay (reference value: 61.14 +/- 1.05%). Background: Formazan colour is commonly taken as a measure of viable cells.
In assay [2] the test system is SH-SY5Y. The experiment in a line: Neuroprotective activity against H2O2-induced cell death in human SH-SY5Y cells assessed as cell viability at 50 uM preincubated for 1 hr followed by H2O2 addition and measured after 4 hrs by CCK8 assay (reference value: 61.14 +/- 1.05%).
The test system of assay [3] is SH-SY5Y. The experiment in a line: Neuroprotective activity against H2O2-induced cell death in human SH-SY5Y cells assessed as cell viability at 100 uM preincubated for 1 hr followed by H2O2 addition and measured after 4 hrs by CCK8 assay (reference value: 61.14 +/- 1.05%).

For `COC(=O)[C@H]1O[C@@H](O[C@H]2[C@@H](O)C[C@@]3(C)[C@@H](CC[C@]4(C)[C@@H]3CC=C3[C@@H]5CC(C)(C)CC[C@]5(C(=O)O[C@@H]5O[C@H](CO)[C@@H](O)[C@H](O)[C@H]5O)CC[C@]34C)[C@]2(C)CO)[C@H](O)[C@@H](O)[C@@H]1O[C@@H]1OC[C@@H](O)[C@H](O)[C@H]1O`, the viability at 25 µM in assay [1] turned out to be 62.1%. Further, the viability at 50 µM in assay [2] was 64.8%. Further, the viability at 100 µM in assay [3] was 73%.

As for `COC(=O)[C@H]1O[C@@H](O[C@H]2[C@@H](O)C[C@@]3(C)[C@@H](CC[C@]4(C)[C@@H]3CC=C3[C@@H]5CC(C)(C)CC[C@]5(C(=O)O[C@@H]5O[C@H](CO)[C@@H](O)[C@H](O)[C@H]5O)CC[C@]34C)[C@]2(C)CO)[C@H](O[C@@H]2O[C@H](CO)[C@H](O)[C@H](O)[C@H]2O)[C@@H](O)[C@@H]1O`, the viability at 25 µM in assay [1] amounted to 60.7%. For the same molecule, in assay [2], the viability at 50 µM was determined as 61.2%. Also, in assay [3], the viability at 100 µM was found to be 67.1%.

In the case of `COC(=O)[C@H]1O[C@@H](O[C@H]2CC[C@@]3(C)[C@@H](CC[C@]4(C)[C@@H]3CC=C3[C@@H]5CC(C)(C)CC[C@]5(C(=O)O[C@@H]5O[C@H](CO)[C@@H](O)[C@H](O)[C@H]5O)CC[C@]34C)[C@]2(C)CO)[C@H](O[C@@H]2O[C@H](CO)[C@@H](O)[C@H](O)[C@H]2O[C@@H]2OC[C@H](O)[C@H](O)[C@H]2O)[C@@H](O)[C@@H]1O`, the viability at 25 µM in assay [1] stood at 61.9%. Moreover, the viability at 50 µM in assay [2] is 62.9%. For the same molecule, the viability at 100 µM in assay [3] was found to be 63.1%.

With `CC1(C)CC[C@]2(C(=O)O)CC[C@]3(C)C(=CC[C@@H]4[C@@]5(C)C[C@H](O)[C@H](O)[C@@](C)(C(=O)O)[C@@H]5CC[C@]43C)[C@@H]2C1`, the viability at 25 µM in assay [1] was 60.1%. Moreover, in assay [2], the viability at 50 µM was determined as 61.1%. In addition, the viability at 100 µM in assay [3] stood at 62.2%.

Regarding `Cc1c(C)c2c(c(C)c1O)CCC(C)(C(=O)O)O2` (stereo not given) [TROLOX], the viability at 25 µM in assay [1] is 70.2%. The viability at 50 µM in assay [2] is 75.3%. In addition, in assay [3], the viability at 100 µM turned out to be 78.2%.
